{"source": "patent US20240408119A1", "about": "“DELIVERY OF THERAPEUTIC ALKALOID COMPOUNDS” (priority 2022, published 2024)", "key": {"[1]": {"assay": "Hydrolysis Assay - Condition 1 (SGF)", "type": "physicochemical", "conditions": "SGF with pepsin pH 1.5, 37° C., 0.5 mM", "procedure": "50 μL of compound (10 mM) in DMSO was diluted into 950 μL of Simulated Gastric Fluid (SGF) with pepsin (pH 1.5) to a final concentration of 0.5 mM. The hydrolysis kinetics were conducted at 37° C. and measured by LCMS at a certain time interval.\n(§1) The corresponding LCMS chromatogram were recorded and the conversions were calculated by integration of each peak.\n(§2) • 1) LCMS spectra were obtained using Agilent 1200G1956A or SHIMADZU LCMS-2020. Standard LCMS conditions were as follows (running time 1.55 minutes): • Acidic condition: Mobile Phase A: 0.0375% TFA in water (v/v). Mobile Phase B: 0.01875% TFA in acetonitrile (v/v); Column: Kinetex EVO C18 30*2.1 mm, 5 μm. • Basic condition: Mobile Phase A: 0.025% NH3·H2O in water (v/v). Mobile Phase B: Acetonitrile; Column: Kinetex EVO C18 2.1×30 mm, 5 μm. • 2) Conversion (%)=peak area 1/(peak area 1+peak area 2)*100%, peak area 1 is the integration of hydrolyzed product, peak area 2 is the integration of starting material."}, "[2]": {"assay": "Hydrolysis Assay - Condition 2 (DI Water)", "type": "physicochemical", "conditions": "25° C., 0.5 mM", "procedure": "50 μL of compound (10 mM) in DMSO was diluted into 950 μL of DI water to a final concentration of 0.5 mM. The hydrolysis kinetics were conducted at 25° C. and measured by LCMS at a certain time interval.\nas §1, §2"}, "[3]": {"type": "in vitro ADME, mouse", "conditions": "prodrug remaining, 5 μM, 37° C.", "procedure": "(§3) Each test was carried out in duplicate for each time point; 0 min, 15 min, 30 min, 60 min, 120, 240 min. […]"}, "[4]": {"type": "in vitro ADME, human", "conditions": "prodrug remaining, 5 μM, 37° C.", "procedure": "as §3"}, "[5]": {"assay": "Plasma Stability Assay (Example A3), human plasma", "type": "in vitro ADME", "conditions": "prodrug remaining, 10 μM, 37° C.", "excerpt": "The data is represented in the table below."}, "SERT": {"biological_target": "SERT (Homo sapiens (Human), UniProt P31645)", "assay": "SERT Inhibition Assay (Neurotransmitter Transporter Fluorescence assay, stable 5HTT cells)", "type": "cell-based", "procedure": "SERT inhibition was measured using a Neruotransmitter Transportation Fluorescence assay. Briefly, stable 5HTT cells were prepared in a 384 microwell plate. Compounds were prepared by in assay buffer (20 mM HEPES, 0.1% BSA). The compounds were added to the plated cells and incubated for 30 minutes at 37° C. 25 μL of dye solution (Molecular Devices Neurotransmitter Transporter Uptake Assay Kit) was added per well and incubated for 30 minutes at 37° C. The plates were then read on a plate reader."}, "[6]": {"assay": "Metabolic Stability in Human Hepatocytes", "type": "in vitro ADME", "conditions": "cryopreserved human hepatocytes, 37° C.", "in_short": "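Cryopreserved human hepatocytes at 5×10^5 viable cells/mL in serum-free medium, 100 μM compound stock added 1:100, 37° C. with shaking, sampled 0.5–120 min. Acetonitrile quench, LC-MS/MS; t1/2 = 0.693/k from regression slope, CLint = kV/N in μL/min/10^6 cells.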"}, "in vivo": {"assay": "in vivo", "type": "in vivo, mouse", "conditions": "for half-life / C0 / clearance / Vd: iv, 2 mg/kg; for C0: back extrapolated; for clearance: flagged NR (not reportable, very high vs liver blood flow); for Vd: read-out: Vss", "procedure": "Total fifteen male mice were used in this study with n=3 mice/time point with sparse sampling study design. Animals were administered through intravenous route with solution formulation of 323 at 2 mg/kg dose.\nThe extraction procedure for plasma/brain samples and the spiked plasma/brain calibration standards were identical (PMSF Stabilized Plasma and Brain used for Preparation of calibration standards): A 20 μL of study sample plasma/brain or spiked plasma/brain calibration standard was added to individual pre-labeled micro-centrifuge tubes followed by 200 μL of internal standard prepared in acetonitrile (Rosuvastatin+Cetrizine, 50 ng/mL) was added except for blank, where 200 μL of acetonitrile was added. Samples were vortexed for 5 minutes. Samples were centrifuged for 10 minutes at a speed of 4000 rpm at 4° C. Following centrifugation, 200 μL of clear supernatant was transferred in 96 well plates and analyzed using LC-MS/MS.\nBrain samples were diluted (1-part of tissue: 2-part of buffer) and homogenized. The homogenate was submitted for bioanalysis and the concentrations (ng/mL) received were corrected with dilution factor (3×) and the final reported concentrations were represented in ng/g.\nThe plasma and brain concentration-time data of 323 and 001 were used for the pharmacokinetic analysis.\nLLOQ: 323: 1.02 ng/mL for plasma and brain 001: 1.01 ng/mL for plasma and brain"}, "[7]": {"conditions": "male, C57BL/6, mouse, in vivo, 323 in brain after 323 IV 2 mg/kg"}, "[8]": {"conditions": "male, C57BL/6, mouse, in vivo, 323 in plasma after 323 IV 2 mg/kg"}, "[9]": {"conditions": "male, C57BL/6, mouse, in vivo, 323 after 323 IV 2 mg/kg, read-out: Brain concentrations (mean)"}, "[10]": {"conditions": "male, C57BL/6, mouse, in vivo, 323 after 323 IV 2 mg/kg, read-out: Plasma concentrations (mean)"}}, "note": "Where two headings read alike, the source gives them in different places."}
{"smiles": "COc1ccc([C@@]23CCC(OP4(=O)OCC(C)(C)CO4)=C[C@@H]2N(C)CC3)cc1OC", "note": "[Compound 323, 2-[[(3aS,7aS)-3a-(3,4-dimethoxyphenyl)-1-methyl-3,4,5,7a-tetrahydro-2H-indol-6-yl]oxy]-5,5-dimethyl-1,3,2λ^5-dioxaphosphinane 2-oxide]", "values": [{"measurement": "Condition 1 Conversion (%)", "setting": "[1]; 1 min", "result": 0, "unit": "%"}, {"measurement": "Condition 1 Conversion (%)", "setting": "[1]; 5 min", "result": 0, "unit": "%"}, {"measurement": "Condition 1 Conversion (%)", "setting": "[1]; 30 min", "result": 0, "unit": "%"}, {"measurement": "Condition 1 Conversion (%)", "setting": "[1]; 1 h", "result": 0, "unit": "%"}, {"measurement": "Condition 1 Conversion (%)", "setting": "[1]; 4 h", "result": 0, "unit": "%"}, {"measurement": "Condition 1 Conversion (%)", "setting": "[1]; 24 h", "result": 0, "unit": "%"}, {"measurement": "Condition 2 Conversion (%)", "setting": "[2]; 1 min", "result": 0, "unit": "%"}, {"measurement": "Condition 2 Conversion (%)", "setting": "[2]; 5 min", "result": 0, "unit": "%"}, {"measurement": "Condition 2 Conversion (%)", "setting": "[2]; 30 min", "result": 0, "unit": "%"}, {"measurement": "Condition 2 Conversion (%)", "setting": "[2]; 1 h", "result": 0, "unit": "%"}, {"measurement": "Condition 2 Conversion (%)", "setting": "[2]; 4 h", "result": 0, "unit": "%"}, {"measurement": "Condition 2 Conversion (%)", "setting": "[2]; 24 h", "result": 0, "unit": "%"}, {"measurement": "Mouse Plasma Prodrug (%)", "setting": "[3]; 0 min", "result": 100.0, "unit": "%"}, {"measurement": "Mouse Plasma Prodrug (%)", "setting": "[3]; 15 min", "result": ">99", "unit": "%"}, {"measurement": "Mouse Plasma Prodrug (%)", "setting": "[3]; 30 min", "result": ">99", "unit": "%"}, {"measurement": "Mouse Plasma Prodrug (%)", "setting": "[3]; 60 min", "result": 94.1, "unit": "%"}, {"measurement": "Mouse Plasma Prodrug (%)", "setting": "[3]; 120 min", "result": 71.9, "unit": "%"}, {"measurement": "Mouse Plasma Prodrug (%)", "setting": "[3]; 240 min", "result": 50.3, "unit": "%"}, {"measurement": "Human Plasma Prodrug (%)", "setting": "[4]; 0 min", "result": 100, "unit": "%"}, {"measurement": "Human Plasma Prodrug (%)", "setting": "[4]; 15 min", "result": 76.6, "unit": "%"}, {"measurement": "Human Plasma Prodrug (%)", "setting": "[4]; 30 min", "result": 64.5, "unit": "%"}, {"measurement": "Human Plasma Prodrug (%)", "setting": "[4]; 60 min", "result": 38.1, "unit": "%"}, {"measurement": "Human Plasma Prodrug (%)", "setting": "[4]; 120 min", "result": 12.8, "unit": "%"}, {"measurement": "Human Plasma Prodrug (%)", "setting": "[4]; 240 min", "result": 1.60, "unit": "%"}, {"measurement": "Human Plasma Prodrug (%)", "setting": "[5]; 0 min", "result": 100.00, "unit": "%"}, {"measurement": "Human Plasma Prodrug (%)", "setting": "[5]; 10 min", "result": 86.9, "unit": "%"}, {"measurement": "Human Plasma Prodrug (%)", "setting": "[5]; 30 min", "result": 70.8, "unit": "%"}, {"measurement": "Human Plasma Prodrug (%)", "setting": "[5]; 60 min", "result": 52.7, "unit": "%"}, {"measurement": "Human Plasma Prodrug (%)", "setting": "[5]; 120 min", "result": 27.0, "unit": "%"}, {"measurement": "Human Plasma Prodrug (%)", "setting": "[5]; 240 min", "result": 9.3, "unit": "%"}, {"measurement": "IC50", "setting": "SERT", "result": 62.7, "unit": "nM"}, {"measurement": "half-life at 1 μM", "setting": "[6]", "result": 327, "unit": "min"}, {"measurement": "hepatocyte CLint at 1 μM", "setting": "[6]", "result": 4.2, "unit": "µL/min/1e6 cells"}, {"measurement": "brain concentrations quantifiable up to", "setting": "in vivo; 323 after 323 IV 2 mg/kg", "result": "≤ 0.5", "unit": "h"}, {"measurement": "plasma concentrations quantifiable up to", "setting": "in vivo; 323 after 323 IV 2 mg/kg", "result": "up to 2 h"}, {"measurement": "AUClast", "setting": "in vivo; 323 in brain after 323 IV 2 mg/kg", "result": 6.56, "unit": "ng·h/g"}, {"measurement": "half-life", "setting": "in vivo; [7]", "result": 10.8, "unit": "min"}, {"measurement": "C0", "setting": "in vivo; [7]", "result": 33.9, "unit": "ng/mL"}, {"measurement": "clearance", "setting": "in vivo; [7]", "result": 4350, "unit": "mL/min/kg"}, {"measurement": "Vd", "setting": "in vivo; [7]", "result": 61.7, "unit": "L/kg"}, {"measurement": "half-life", "setting": "in vivo; [8]", "result": 10.2, "unit": "min"}, {"measurement": "C0", "setting": "in vivo; [8]", "result": 609, "unit": "ng/mL"}, {"measurement": "clearance", "setting": "in vivo; [8]", "result": 344, "unit": "mL/min/kg"}, {"measurement": "Vd", "setting": "in vivo; [8]", "result": 3.25, "unit": "L/kg"}, {"measurement": "concentration at 0.08 h", "setting": "in vivo; [9]", "result": 22.1, "unit": "ng/g"}, {"measurement": "concentration at 0.08 h", "setting": "in vivo; [10]", "result": 332, "unit": "ng/mL"}, {"measurement": "concentration at 0.25 h", "setting": "in vivo; [9]", "result": 8.97, "unit": "ng/g"}, {"measurement": "concentration at 0.25 h", "setting": "in vivo; [10]", "result": 91.6, "unit": "ng/mL"}, {"measurement": "concentration at 0.5 h", "setting": "in vivo; male, C57BL/6, mouse, in vivo, 323 after 323 IV 2 mg/kg, average of two values, read-out: Brain concentrations (mean)", "result": 4.43, "unit": "ng/g"}, {"measurement": "concentration at 0.5 h", "setting": "in vivo; [10]", "result": 26.3, "unit": "ng/mL"}, {"measurement": "concentration at 1 h", "setting": "in vivo; male, C57BL/6, mouse, in vivo, 323 after 323 IV 2 mg/kg, 1 h, read-out: Plasma concentrations (mean)", "result": 4.05, "unit": "ng/mL"}, {"measurement": "concentration at 2 h", "setting": "in vivo; male, C57BL/6, mouse, in vivo, 323 after 323 IV 2 mg/kg, 2 h, single value, excluded from data analysis, read-out: Plasma concentrations (mean)", "result": 1.03, "unit": "ng/mL"}, {"measurement": "Kp", "setting": "in vivo; male, C57BL/6, mouse, in vivo, 323 after 323 IV 2 mg/kg, read-out: Brain-Kp", "result": 0.07}, {"measurement": "AUC(0-t)", "setting": "in vivo; [8]", "result": 96, "unit": "ng·h/mL"}]}
